pKi: −log10 of the molar value.
Experiments:
[1] = Stability in mouse liver microsomes assessed as oxidative metabolism by measuring drug recovery at 10 uM preincubated for 10 mins followed by NADPH addition measured after 30 mins by liquid chromatographic method; assay type: ADME; conditions: liver microsomes, read-out: Drug recovery
[2] = Retention factor, logKw of compound in MeOH/0.01 M phosphate buffer at pH 7.4 by RP-HPLC method; assay type: physicochemical
[3] = target: 5-hydroxytryptamine receptor 7 (Homo sapiens, UniProt P34969); test: Displacement of [3H]-5-CT from human 5-HT7b receptor expressed in HEK293 cell membranes after 1 hr by microbeta counting analysis
Chain of 5-hydroxytryptamine receptor 7 (P34969 whole entry): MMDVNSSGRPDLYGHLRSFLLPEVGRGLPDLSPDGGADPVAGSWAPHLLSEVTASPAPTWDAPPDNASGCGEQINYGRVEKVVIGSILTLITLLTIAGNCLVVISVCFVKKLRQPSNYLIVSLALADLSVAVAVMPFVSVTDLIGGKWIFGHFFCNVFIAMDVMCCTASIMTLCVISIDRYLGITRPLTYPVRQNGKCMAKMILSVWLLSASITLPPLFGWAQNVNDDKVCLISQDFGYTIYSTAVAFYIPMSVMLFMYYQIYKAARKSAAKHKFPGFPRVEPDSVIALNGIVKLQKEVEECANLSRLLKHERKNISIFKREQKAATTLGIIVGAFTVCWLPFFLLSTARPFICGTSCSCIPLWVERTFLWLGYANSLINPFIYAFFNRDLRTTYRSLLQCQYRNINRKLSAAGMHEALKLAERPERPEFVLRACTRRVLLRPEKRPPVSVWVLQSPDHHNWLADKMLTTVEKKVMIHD

[4] = target: T1, 5-hydroxytryptamine receptor 1A (Homo sapiens, UniProt P08908); test: Displacement of [3H]-8-OH-DPAT from human 5-HT1A receptor expressed in HEK293 cell membranes after 1 hr by microbeta counting analysis
T1 sequence (P08908 whole entry): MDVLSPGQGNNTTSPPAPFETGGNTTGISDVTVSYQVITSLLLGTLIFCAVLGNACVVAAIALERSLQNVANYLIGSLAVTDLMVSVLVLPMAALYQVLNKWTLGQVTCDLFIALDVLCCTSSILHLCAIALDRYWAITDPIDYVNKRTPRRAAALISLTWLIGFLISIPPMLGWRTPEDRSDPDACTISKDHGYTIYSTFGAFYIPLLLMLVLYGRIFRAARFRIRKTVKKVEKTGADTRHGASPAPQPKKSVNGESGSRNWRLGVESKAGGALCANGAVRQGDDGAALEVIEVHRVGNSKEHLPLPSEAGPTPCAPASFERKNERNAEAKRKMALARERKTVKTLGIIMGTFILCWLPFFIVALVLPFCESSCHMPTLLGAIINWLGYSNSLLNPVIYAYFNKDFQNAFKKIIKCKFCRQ

[5] = target: 5-hydroxytryptamine receptor 6 (Homo sapiens, UniProt P50406); test: Displacement of [3H]-LSD from human 5-HT6 receptor expressed in HEK293 cell membranes after 1 hr by microbeta counting analysis
Chain of 5-hydroxytryptamine receptor 6 (P50406 whole entry): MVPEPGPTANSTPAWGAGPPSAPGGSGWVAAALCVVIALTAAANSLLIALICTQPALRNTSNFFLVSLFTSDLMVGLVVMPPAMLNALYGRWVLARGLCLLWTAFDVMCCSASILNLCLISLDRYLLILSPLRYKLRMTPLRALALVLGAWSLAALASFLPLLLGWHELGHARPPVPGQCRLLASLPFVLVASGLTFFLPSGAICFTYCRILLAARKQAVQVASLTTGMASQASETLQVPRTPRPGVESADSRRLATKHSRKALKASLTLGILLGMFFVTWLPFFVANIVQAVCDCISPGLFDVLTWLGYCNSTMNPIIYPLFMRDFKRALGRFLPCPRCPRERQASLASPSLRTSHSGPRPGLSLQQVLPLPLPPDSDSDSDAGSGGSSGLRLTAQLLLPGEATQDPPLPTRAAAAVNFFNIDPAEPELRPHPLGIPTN

D(2) dopamine receptor = D(2) dopamine receptor (Homo sapiens, UniProt P14416); test: Displacement of [3H]raclopride from human dopamine D2L receptor expressed in HEK293 cell membranes after 1 hr by microbeta counting analysis; assay type: cell-based
Chain of D(2) dopamine receptor (P14416 whole entry): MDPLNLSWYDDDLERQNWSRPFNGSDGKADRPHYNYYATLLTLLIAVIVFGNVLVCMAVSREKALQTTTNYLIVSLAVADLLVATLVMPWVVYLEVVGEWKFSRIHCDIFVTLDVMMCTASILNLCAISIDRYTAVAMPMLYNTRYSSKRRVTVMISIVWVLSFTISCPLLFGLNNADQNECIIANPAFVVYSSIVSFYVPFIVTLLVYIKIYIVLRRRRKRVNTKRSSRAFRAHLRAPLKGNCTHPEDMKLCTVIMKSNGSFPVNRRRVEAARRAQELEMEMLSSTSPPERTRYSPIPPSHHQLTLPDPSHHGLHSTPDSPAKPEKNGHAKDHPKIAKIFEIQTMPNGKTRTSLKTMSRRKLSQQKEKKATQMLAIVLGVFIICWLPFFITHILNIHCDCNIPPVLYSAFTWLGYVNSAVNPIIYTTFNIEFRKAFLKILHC

[6] = Displacement of [3H]-prazosin from adrenergic alpha 1 receptor in pig brain cortical membranes after 50 mins by microbeta counting analysis; assay type: ADME, cell membranes, Sus scrofa
[7] = Half life in mouse liver microsomes in presence of NADPH by liquid chromatographic method; assay type: ADME; conditions: liver microsomes

SMILES | remaining at 0.5 h, 10 µM [1] | logKw [2] | pKi [3] | pKi [4] | pKi [5] | pKi (D(2) dopamine receptor) | pKi [6] | half-life [7]
COc1ccc(-c2ccccc2N2CCN(CCOCCC(=O)NCc3cccnc3)CC2)cc1 | 23% | 0.23 |  |  |  |  |  | 
COc1ccc(-c2ccccc2N2CCN(CCCCCC(=O)N[C@@H](C)c3ccc(C#N)cc3)CC2)cc1 | 24% | 0.59 | 7.72 | 6.83 | 6.15 | 6.51 | 7.89 | 29 min
N#Cc1ccc(CNC(=O)CCOCCN2CCN(c3ncccc3-c3ccccc3)CC2)cc1 | 1.6 to 3% | 0.11 | 7.12 | 6.23 | 5.79 |  |  | 
C[C@H](NC(=O)CCCCCN1CCN(c2ccccc2-c2ccccc2)CC1)c1ccccc1 | 16% | 0.75 | 8.00 | 7.18 | 6.32 | 7.28 | 7.33 | 
O=C(CCCCCN1CCN(c2ccccc2-c2ccccc2)CC1)NCc1ccc(OCCN2CCOCC2)cc1 | 5% | 0.59 | 7.80 | 6.80 | 5.76 | 6.87 | 8.13 | 
O=C(CCOCCN1CCN(c2cccnc2-c2ccccc2)CC1)NCc1ccc(C(F)(F)F)cc1 | 1% | 0.16 | 7.36 | 6.10 | 5.65 | 5.56 | 6.33 | 
O=C(CCCCCN1CCN(c2ccccc2-c2ccccc2)CC1)NCc1ccc(OCCO)cc1 | 10% |  | 6.59 |  |  |  | 8.35 | 
COc1ccc(-c2ccccc2N2CCN(CCCCCC(=O)N[C@H](C)c3ccc(C#N)cc3)CC2)cc1 | 26% | 0.54 | 7.92 | 6.96 | 6.07 | 6.61 | 7.75 | 23 min
COc1ccc(-c2ccccc2N2CCN(CCCCCC(=O)N[C@H](C)c3ccccc3)CC2)cc1 | 0.7 to 3% | 0.71 | 7.94 | 6.87 | 6.14 | 6.53 | 7.44 | 
N#Cc1ccc(CNC(=O)CCCCCN2CCN(c3ccc(F)cc3-c3ccc(C#N)cc3)CC2)cc1 | 22% | 0.23 | 7.57 | 5.54 | 6.03 | 5.86 | 8.49 | 26 min
N#Cc1ccc(CNC(=O)CCOCCN2CCN(c3ncccc3-c3ccc(F)cc3)CC2)cc1 | 1% | 0.15 | 7.27 | 5.58 | 5.79 |  | 6.81 | 
COc1ccc(-c2ccccc2N2CCN(CCCCCC(=O)NCc3ccc(OCCCN4CCOCC4)cc3)CC2)cc1 | 3 to 3.3% | 0.62 | 7.73 | 6.98 | 5.79 | 6.59 | 7.28 | 
C[C@H]1CN(c2ccccc2-c2ccccc2)CCN1CCCCCC(=O)NCc1ccccc1 | 5% | 0.59 | 7.44 | 6.69 | 6.40 | 6.61 | 7.37 | 
CN(C)Cc1ccc(CNC(=O)CCCCCN2CCN(c3ccccc3-c3ccccc3)CC2)cc1 | 3 to 5% | 0.68 | 7.68 | 7.13 | 5.82 | 7.12 | 7.64 | 
COCOc1ccc(CNC(=O)CCCCCN2CCN(c3ccccc3-c3ccccc3)CC2)cc1 | 5.4% | 0.44 | 8.35 | 7.07 | 6.38 | 7.44 | 7.70 | 
O=C(CCOCCN1CCN(c2ncccc2-c2ccc(F)cc2)CC1)NCc1ccc(C(F)(F)F)cc1 | 2% | 0.42 | 7.49 | 5.74 | 5.97 | 6.41 | 5.86 | 
O=C(CCOCCN1CCN(c2ccccc2-c2ccccc2)CC1)NCc1ccc(C(F)(F)F)cc1 | 3% | 0.75 |  |  | 6.08 | 6.46 | 6.61 | 
COc1ccc(-c2ccccc2N2CCN(CCOCCC(=O)NCc3ccncc3)CC2)cc1 | 25% | 0.25 |  |  |  |  |  | 
COc1ccc(-c2ccccc2N2CCN(CCOCCC(=O)NCc3ccccn3)CC2)cc1 | 19% | 0.32 |  |  |  |  |  | 

SMILES | remaining at 0.5 h, 10 µM [1] | logKw [2] | pKi [3] | pKi [4] | pKi [5] | pKi (D(2) dopamine receptor) | pKi [6] | half-life [7]
COc1ccc(-c2ccccc2N2CCN(CCCCCC(=O)NCc3ccc(OCCN4CCOCC4)cc3)CC2)cc1 | 15% | 0.57 | 7.60 | 6.79 | 5.77 | 6.43 | 7.59 | 
N#Cc1ccc(CNC(=O)CCOCCN2CCN(c3ccccc3-c3ccccc3)CC2)cc1 | 5% | 0.41 |  |  | 6.83 |  | 8.03 | 
O=C(CCCCCN1CCN(c2ccccc2-c2ccccc2)CC1)NCc1ccc(OCCCN2CCOCC2)cc1 | 3.3% | 0.63 | 8.02 | 6.83 | 5.94 | 7.19 | 7.91 | 
COc1ccc(-c2ccccc2N2CCN(CCCCCC(=O)NCc3ccc(OCCO)cc3)CC2)cc1 | 19% | 0.39 | 7.84 | 6.82 | 5.87 | 6.38 | 7.28 | 
N#Cc1ccc(CNC(=O)CCOCCN2CCN(c3cccnc3-c3ccc(F)cc3)CC2)cc1 | 9% | -0.09 | 6.97 | 5.18 | 5.55 | 5.71 | 6.04 | 
C[C@@H]1CN(c2ccccc2-c2ccccc2)CCN1CCCCCC(=O)NCc1ccccc1 | 3% | 0.58 | 7.85 | 7.00 | 6.36 | 6.75 | 7.94 | 
CS(=O)(=O)Oc1ccc(CNC(=O)CCCCCN2CCN(c3ccccc3-c3ccccc3)CC2)cc1 | < 3% |  |  |  |  |  |  | 
COc1ccc(-c2ccccc2N2CCN(CCCCCC(=O)NCc3ccc(C#N)cc3)CC2)cc1 | 25% | 0.54 | 8.10 | 6.90 | 6.13 | 6.53 | 7.52 | 18 min
O=C(CCOCCN1CCN(c2ccccc2-c2ccccc2)CC1)NCc1ccncc1 | 13% | 0.27 | 7.28 | 5.98 | 5.60 | 5.61 | 7.03 | 
COc1ccc(-c2ccccc2N2CCN(CCCCCC(=O)NCc3ccncc3)CC2)cc1 | 35% | 0.39 |  |  |  |  |  | 
COc1ccc(-c2ccccc2N2CCN(CCCCCC(=O)NCc3ccccn3)CC2)cc1 | 6% | 0.47 |  |  |  |  |  | 
C[C@@H](NC(=O)CCCCCN1CCN(c2ccccc2-c2ccccc2)CC1)c1ccccc1 | 9% | 0.75 | 7.98 | 7.10 | 6.25 | 6.94 | 7.44 | 
COCOc1ccc(CNC(=O)CCCCCN2CCN(c3ccccc3-c3ccc(OC)cc3)CC2)cc1 | 8.3% | 0.38 | 8.19 | 6.80 | 6.19 | 6.49 | 8.23 | 
N#Cc1ccc(CNC(=O)CCOCCN2CCN(c3cccnc3-c3ccccc3)CC2)cc1 | 2% | -0.14 | 7.06 | 5.42 | 5.46 |  | 6.51 | 
O=C(CCOCCN1CCN(c2cccnc2-c2ccc(F)cc2)CC1)NCc1ccc(C(F)(F)F)cc1 | 6% | 0.14 | 6.60 | 5.22 | 5.58 | 5.46 | 6.58 | 
O=C(CCCCCN1CCN(c2ccccc2-c2ccccc2)CC1)NCc1ccccc1 | < 3% | 0.68 |  |  |  |  |  | 
O=C(CCOCCN1CCN(c2ncccc2-c2ccccc2)CC1)NCc1ccc(C(F)(F)F)cc1 | 1% | 0.48 | 7.28 | 6.44 | 5.98 |  | 5.91 | 
COc1ccc(-c2ccccc2N2CCN(CCCCCC(=O)NCc3cccnc3)CC2)cc1 | 32% | 0.38 |  |  |  |  |  | 
COc1ccc(-c2ccccc2N2CCN(CCCCCC(=O)N[C@@H](C)c3ccccc3)CC2)cc1 | 21% | 0.71 | 7.81 | 6.99 | 6.19 | 6.75 | 7.66 | 

Source: ChEMBL document CHEMBL3856221, “Structural modifications of the serotonin 5-HT7 receptor agonist N-(4-cyanophenylmethyl)-4-(2-biphenyl)-1-piperazinehexanamide (LP-211) to improve in vitro microsomal stability: A case study” (Eur J Med Chem, 2016)
